In ChEMBL document CHEMBL3045467, “Major alkaloidal constituent from Impatiens niamniamensis seeds as antihyperglycemic agent” (2011):

Key:
Format in all cases: functional
Design in all cases: scale not given: the % may be the effect or the level left
Rattus norvegicus [1] = experiment: Antihyperglycemic activity in albino Rattus norvegicus Sprague-Dawley (rat) streptozotocin-induced diabetic model assessed as reduction of AUC of blood glucose level at 50 mg/kg, po after 24 hr
Rattus norvegicus [2] = experiment: Antihyperglycemic activity in albino Rattus norvegicus Sprague-Dawley (rat) streptozotocin-induced diabetic model assessed as reduction of AUC of blood glucose level at 50 mg/kg, po after 5 hr
Rattus norvegicus [3] = experiment: Antihyperglycemic activity in albino Rattus norvegicus Sprague-Dawley (rat) streptozotocin-induced diabetic model assessed as reduction of AUC of blood glucose level at 100 mg/kg, po after 5 hr
Rattus norvegicus [4] = experiment: Antihyperglycemic activity in albino Rattus norvegicus Sprague-Dawley (rat) streptozotocin-induced diabetic model assessed as reduction of AUC of blood glucose level at 100 mg/kg, po after 24 hr

SMILES	Activity (Rattus norvegicus [1]) [%]	Activity (Rattus norvegicus [2]) [%]	Activity (Rattus norvegicus [3]) [%]	Activity (Rattus norvegicus [4]) [%]
C[N+](C)(C)[C@@H](Cc1c[nH]c2ccccc12)C(=O)[O-] [Hypaphorine]	20.4	27.8	–	–
CN(C)C(=N)NC(=N)N [METFORMIN]	–	–	26	24.9
